The test system of this test is modified aptamer M3.2 (DNA, aptamer) ACTCATCTGTGAAGAGAAGCAGCACAGAGGTCAGATGTCCGTCAGCCCCGATCGCCATCCAGGGACTCCCCCCTATGCCTATGCGTGCTACCGTGAA
Nature of the test: gold nanoparticle colorimetric assay, UV-Vis. As to conditions: 250 mM NaCl; 1 µL of 50 mM compound in DMF added; room temperature; thiol oligos on gold nanoparticles.

`NCCc1c[nH]c2ccccc12`: the binding result is recorded as “no”.

Take `O=C(N[C@H](CO)[C@H](O)c1ccc([N+](=O)[O-])cc1)C(Cl)Cl`: the binding entry is recorded as “no”.

Turning to `CN1C[C@H](CN)C[C@@H]2c3cccc4c3c(cn4C)C[C@H]21`, the binding entry is given as “yes”.

`CN1C[C@H](CNC(=O)OCc2ccccc2)C[C@@H]2c3cccc4c3c(cn4C)C[C@H]21`: the binding result was “yes”.

As for `CN(C)Cc1c[nH]c2ccccc12`, the binding entry was “no”.

For `N[C@@H](Cc1c[nH]c2ccccc12)C(=O)O`, the binding entry is “no”.

Turning to `CC(C)[C@H]1C(=O)N2CCC[C@H]2[C@]2(O)O[C@](NC(=O)[C@@H]3C=C4c5cccc6[nH]cc(c56)C[C@H]4N(C)C3)(C(C)C)C(=O)N12`, the binding entry is “no”.

For the origin of these results see paper PMC3546743 (2012).
